This is an account of results in US12540922B2, “Quantitative shotgun proteome, lipidome, and metabolome analysis by direct infusion” (Wisconsin Alumni Research Foundation, priority 2021, dated 2026).

In this assay the test system is 293T cells (wild type or PPTC7 knockout). As to the kind of experiment: MitoTox screen: DI-SPA proteome quantification of toxin-treated cells. It counts as cell-based, human. The settings on record: 6-hour compound treatments, DMEM or HPLM. Here is the method: Wild type or PPTC7 knockout (KO) cells were grown in either standard or modified media, DMEM or HPLM (Cantor et al., Cell, 169, 258-272.e17 (2017)), respectively, and treated in triplicate with one of nine mitochondrial toxins or two controls for a total 132 samples. These conditions were chosen because of their known effects on metabolism and mitochondria, which were hypothesized to induce changes in proteins and thus provide a suitable testbed for DI-SPA. Again, a peptide discovery experiment (like FIG. 7) was first performed to identify peptides for subsequent targeted quantification experiments, in which 1,384 peptides were identified (peptide-level FDR=0.93%) from 451 proteins (protein-level FDR=2.8%). Next, a quantitative targeted DI-SPA assay was generated to expeditiously monitor the most intense peptide from each of the 451 proteins. This method was used to analyze all 132 samples, generating 132 proteotypes and requiring only 120 seconds of MS data collection per sample. A total of 341 out of 451 protein targets were quantified across all 132 samples in only 4.4 hours of total MS data acquisition, which corresponds to over 45,000 proteins quantified at a rate of nearly three proteins per second (FIG. 4, panel B).
MitoTox Experiment—Cell Culture. 293T cells were purchased from ATCC (#CRL-3216) and maintained in DMEM (4.5 g/L glucose, 4 mM glutamine, no pyruvate—Thermo #11965092) supplemented with 10% fetal bovine serum (FBS) and 1× penicillin/streptomycin (100 U/mL final [c]). Human Plasma-Like Medium (HPLM) was supplemented with 10% dialyzed FBS (Thermo #26400036) and 1× penicillin/streptomycin (100 U/mL final [c]). For heavy labeling, 293T cells were labeled using the DMEM-based SILAC protein quantitation kit (Thermo #A33972). Briefly, cells were grown for at least 5 passages SILAC-compatible DMEM supplemented with 10% dialyzed FBS, ^13C ^15N2 L-lysine-2HCl and ^13C6 ^15N4 L-arginine HCl, and 1× penicillin/streptomycin. SILAC labeling was confirmed through mass spectrometry analysis and ratios of light/heavy cells were titrated based on analysis of median ratios observed in the controls. All cells were grown in a tissue culture grade incubator held at 37° C. supplemented with 5% CO2. Cells were verified as mycoplasma negative via the e-Myco Mycoplasma PCR Detection Kit (Bulldog Bio #25233).
MitoTox screen conditions. 293T or PPTC7 knockout 293T cells were split and plated in 24 well plates at 7.5×10^4 cells per well. Cells were allowed to adhere overnight, and media was replaced with fresh DMEM or HPLM for a total of 24 hours prior to collection of cells. Compound treatments were grouped into 6-hour or 24-hour incubations, with 6-hour compound treatments occurring in the last 6 hours of the 24-hour media change, and 24-hour compound treatments occurring for the entire 24 hours of media treatment. Compounds used for 6 hours include antimycin A (5 μM final [c], Sigma #A8674), rotenone (5 μM final [c], Sigma #R8875), oligomycin (2.5 μM final [c], Sigma #04876), CCCP (10 μM final [c], Sigma #C2759), valinomycin (1 μM final [c], Sigma #V0627) and CDDO (2.5 μM final [c], Cayman Chemical #11883)). Compounds used for 24 hours include doxycycline (10 μg/ml final [c], VWR #75844-668) and Deferoxamine (DFO, 100 μM final [c], Sigma #D9533). One compound, 4-nitrobenzoate (4-NB, 1 mM final [c], Sigma #461091), requires 6+ days for efficacy (Forsman et al., Nature Chemical Biology, 6, 515-517 (2010)), and thus cells were treated with this compound for 5 days before being split to 7.5×10^4 cells per well and grouped with the 24 hour incubations. Control, untreated 293T cells were split and harvested with both the 6-hour and 24-hour compound treatment sets. All conditions were plated and collected in 3 replicate wells. […]
On to `C=C(C)[C@H]1Cc2c(ccc3c2O[C@@H]2COc4cc(OC)c(OC)cc4[C@@H]2C3=O)O1` [rotenone], for which the “proteome perturbation (UMAP of proteotypes) in relation to 6 h controls” value (“proteome perturbation” for short) is given as “most similar”.
Consider `CC(C)[C@@H]1NC(=O)[C@H](C)OC(=O)[C@@H](C(C)C)NC(=O)[C@@H](C(C)C)OC(=O)[C@H](C(C)C)NC(=O)[C@H](C)OC(=O)[C@@H](C(C)C)NC(=O)[C@@H](C(C)C)OC(=O)[C@H](C(C)C)NC(=O)[C@H](C)OC(=O)[C@@H](C(C)C)NC(=O)[C@@H](C(C)C)OC1=O` [Valinomycin, valinomycin], for which the “proteome perturbation” value is recorded as “induced the most profound proteome perturbation relative to controls”.
In the case of `N#CC(C#N)=NNc1cccc(Cl)c1` [CCCP] it was “produced more (and comparable) proteome rearrangement”; in that of antimycin A, “most similar”.
In the case of `CC[C@H]1/C=C/C=C/C[C@@H](C)[C@H](O)[C@@](C)(O)C(=O)[C@@H](C)[C@H](O)[C@@H](C)C(=O)[C@@H](C)[C@H](O)[C@@H](C)/C=C/C(=O)O[C@@H]2[C@H](C)[C@H](CC1)O[C@]1(CC[C@H](C)[C@H](C[C@@H](C)O)O1)[C@H]2C` [oligomycin] it was “produced more (and comparable) proteome rearrangement”.
Take `CC1(C)CC[C@]2(C(=O)O)CC[C@]3(C)[C@H](C(=O)C=C4[C@@]5(C)C=C(C#N)C(=O)C(C)(C)[C@@H]5CC[C@]43C)[C@@H]2C1` [CDDO]: the “proteome perturbation” value was “media dependent”.
